Measured values as given in publication PMC5064022, “KCNE1 induces fenestration in the Kv7.1/KCNE1 channel complex that allows for highly specific pharmacological targeting” (Nature Communications, 2016).

Experiments:
homomeric Kv7.1 = system: T1, homomeric Kv7.1; assay: TEVC, homomeric Kv7.1 channels in oocytes; format: cell-based, human
T1 construct: expressed in transfected cells; host or cells: Xenopus oocytes, cRNA injected
Description: Figure 1 AC-1 inhibits Kv7.1 channels only in the presence of KCNE1. (a) Structure of adamantane compound AC-1. (b) Concentration-response relationship for inhibition of Kv7.1/KCNE channel currents by AC-1. Kv7.1/KCNE1 channel currents were activated by repetitive 7 s pulses to +40 mV applied from a holding potential of −80 mV. Inhibition was determined as percent change in current amplitude at the end of the depolarizing test pulse to +40 mV. Data were fitted (smooth curve) to the Hill equation (n=5–70,±s.e.m.). (c) The inhibitory effect of different AC-1 concentrations on Kv7.1/KCNE1 channels was determined by repetitive 7 s pulses to +40 mV applied from a holding potential of −80 mV. […] Inhibition of current was determined as described above and plotted against the amount (in ng) of cRNA injected into individual oocytes. […]
(§1) Template cDNAs (wildtype or mutant human Kv7.1 in pSGEM, wildtype human KCNE1 in pSP64) were linearized with a suitable restriction enzyme (Nhe I/pSGEM, Eco RI/pSP64). cRNA was synthesized from 1 μg linearized cDNA by in vitro transcription (mMessage mMachine T7 or SP6 kit, Ambion, Life Technologies Darmstadt, Germany). cRNA concentrations were determined by photometry (Nanodrop, Peqlab, Erlangen, Germany) and cRNA quality was checked by agarose gel electrophoresis. […]

V241A/KCNE1 = V241A/KCNE1 (Homo sapiens, UniProt P15382+P51787, V241A); assay: TEVC, mutant channel V241A/KCNE1 in oocytes; format: cell-based; conditions: Kv7.1 V241A mutant with KCNE1
Description: Ala scanning was previously used to identify specific residues that form the putative binding sites for chromanol and benzodiazepine derivatives that are considered to be classical pore blockers of Kv7.1 channels. Here we applied Ala scanning to multiple segments of the Kv7.1 α-subunit to identify potential AC-1 interaction sites in the extended pore region of Kv7.1/KCNE1 channels (Fig. 3a). In cases where mutation to Ala precluded channel function, alternative residues were introduced. […] Instead, most of these crucial residues cluster around a ‘window' formed uniquely in the preopen–closed state model of the Kv7.1/KCNE1 channel[33] (Fig. 3c, magenta residues). […]
as §1
TEVC measurements were performed using a TurboTec-10CD amplifier (npi Electronic, Tamm, Germany) and an ITC-16 AD/DA-interface (Instrutech Corporation, Port Washington, New York, USA). […] Tail currents were recorded at −120 mV. […]

IC50 (V241A/KCNE1): 234 ± 15 nM
Compound: CC(C)(Oc1ccc(Cl)cc1)C(=O)NC1C2CC3CC1CC(NS(C)(=O)=O)(C3)C2 (stereo not drawn) [AC-1, 2-(4-chlorophenoxy)-2-methyl-N-[5-[(methylsulfonyl)amino]tricyclo[3.3.1.13,7]dec-2-yl]-propanamide]
effect on homomeric Kv7.1 (homomeric Kv7.1; 1 μM): does not affect
effect of different concentrations on Kv7.1 homotetramers (homomeric Kv7.1; different concentrations, up to 10 μM, +40 mV): Lack of effect
